{
  "source": "paper PMC5218480",
  "about": "(PLoS ONE, 2017)",
  "test_system": "MV-4-11 cells",
  "experiment": "Gene expression microarray analysis (Affymetrix PrimeView) and GSEA",
  "assay_type": "cell-based, human",
  "parameters": "RFU PODN (11730768_x_at) / Fold change /veh PODN (11730768_x_at) / RFU LINC00158 (11744669_a_at) / Fold change /veh LINC00158 (11744669_a_at) / RFU DUSP10 (11751237_a_at) / Fold change /veh DUSP10 (11751237_a_at) / RFU ID3 (11757404_x_at) / Fold change /veh ID3 (11757404_x_at) / RFU PLEKHG5 (11737974_s_at) / Fold change /veh PLEKHG5 (11737974_s_at) / RFU LRRC4B (11730491_at) / Fold change /veh LRRC4B (11730491_at) / RFU GIMAP4 (11747438_a_at) / Fold change /veh GIMAP4 (11747438_a_at) / RFU KRT8 (11758183_x_at) / Fold change /veh KRT8 (11758183_x_at) / RFU CNN1 (11734310_a_at) / Fold change /veh CNN1 (11734310_a_at) / RFU VPS37D (11726825_at) / Fold change /veh VPS37D (11726825_at) / RFU C10orf10 (11716522_x_at) / Fold change /veh C10orf10 (11716522_x_at) / RFU KIR2DL2 /// KIR2DL4 /// KIR2DL5A /// KIR2DL5B /// KIR2DS1 /// KIR2DS2 /// KIR2DS3 /// KIR2DS4 /// KIR3DL3 /// KIR3DL3 /// KIR3DS1 (11738374_at) / Fold change /veh KIR2DL2 /// KIR2DL4 /// KIR2DL5A /// KIR2DL5B /// KIR2DS1 /// KIR2DS2 /// KIR2DS3 /// KIR2DS4 /// KIR3DL3 /// KIR3DL3 /// KIR3DS1 (11738374_at) / RFU C1QL1 (11718748_at) / Fold change /veh C1QL1 (11718748_at) / RFU TMPRSS4 (11747572_a_at) / Fold change /veh TMPRSS4 (11747572_a_at) / RFU HAMP (11756126_x_at) / Fold change /veh HAMP (11756126_x_at) / RFU RNFT2 (11725882_a_at) / Fold change /veh RNFT2 (11725882_a_at) / RFU NR4A2 (11747474_a_at) / Fold change /veh NR4A2 (11747474_a_at) / RFU ABCC12 (11746883_a_at) / Fold change /veh ABCC12 (11746883_a_at) / RFU TMEM136 (11760407_x_at) / Fold change /veh TMEM136 (11760407_x_at) / RFU CLDN22 /// WWC2 (11732394_at) / Fold change /veh CLDN22 /// WWC2 (11732394_at) / RFU HLA-DPB1 (11760878_x_at) / Fold change /veh HLA-DPB1 (11760878_x_at) / RFU SPINT1 (11716480_a_at) / Fold change /veh SPINT1 (11716480_a_at) / RFU GAP43 (11754022_s_at) / Fold change /veh GAP43 (11754022_s_at) / RFU A4GNT (11735810_at) / Fold change /veh A4GNT (11735810_at) / RFU PRB3 (11715151_x_at) / Fold change /veh PRB3 (11715151_x_at) / RFU TUBB4B (11761932_at) / Fold change /veh TUBB4B (11761932_at) / RFU CAPN14 (11732068_a_at) / Fold change /veh CAPN14 (11732068_a_at) / RFU TMCC2 (11721928_a_at) / Fold change /veh TMCC2 (11721928_a_at) / RFU IRGQ (11745062_a_at) / Fold change /veh IRGQ (11745062_a_at) / RFU FAM174B (11720279_a_at) / Fold change /veh FAM174B (11720279_a_at) / RFU TMPRSS4 (11748680_a_at) / Fold change /veh TMPRSS4 (11748680_a_at) / RFU FAM212B (11763350_a_at) / Fold change /veh FAM212B (11763350_a_at) / RFU PLEKHG5 (11743358_a_at) / Fold change /veh PLEKHG5 (11743358_a_at) / RFU ZSCAN30 (11745921_a_at) / Fold change /veh ZSCAN30 (11745921_a_at) / RFU CMKLR1 (11741424_a_at) / Fold change /veh CMKLR1 (11741424_a_at) / RFU LOC101060620 /// MAPK8IP1 (11723275_at) / Fold change /veh LOC101060620 /// MAPK8IP1 (11723275_at) / RFU SPTSSB (11747773_x_at) / Fold change /veh SPTSSB (11747773_x_at) / RFU PRSS12 (11739890_at) / Fold change /veh PRSS12 (11739890_at) / RFU BIN1 (11741810_x_at) / Fold change /veh BIN1 (11741810_x_at) / RFU WNT11 (11732464_a_at) / Fold change /veh WNT11 (11732464_a_at) / RFU C10orf10 (11716521_a_at) / Fold change /veh C10orf10 (11716521_a_at) / RFU C5orf56 (11738089_at) / Fold change /veh C5orf56 (11738089_at) / RFU CYB561 (11721691_x_at) / Fold change /veh CYB561 (11721691_x_at) / RFU ANKRD19P (11752326_a_at) / Fold change /veh ANKRD19P (11752326_a_at) / RFU OR2T12 /// OR2T33 /// OR2T8 (11738714_s_at) / Fold change /veh OR2T12 /// OR2T33 /// OR2T8 (11738714_s_at) / RFU VCAN (11748164_a_at) / Fold change /veh VCAN (11748164_a_at) / RFU JSRP1 (11732532_at) / Fold change /veh JSRP1 (11732532_at) / RFU KRTAP10-11 (11738290_x_at) / Fold change /veh KRTAP10-11 (11738290_x_at) / RFU MYO3A (11730013_a_at) / Fold change /veh MYO3A (11730013_a_at) / RFU EBF3 (11725865_a_at) / Fold change /veh EBF3 (11725865_a_at) / RFU CAMK2N1 (11719241_x_at) / Fold change /veh CAMK2N1 (11719241_x_at) / RFU C5orf56 (11738088_a_at) / Fold change /veh C5orf56 (11738088_a_at) / RFU OLFML3 (11715873_a_at) / Fold change /veh OLFML3 (11715873_a_at) / RFU LOC100653217 /// NTM (11731650_a_at) / Fold change /veh LOC100653217 /// NTM (11731650_a_at) / RFU MAPK11 (11762145_a_at) / Fold change /veh MAPK11 (11762145_a_at) / RFU FIZ1 (11724087_x_at) / Fold change /veh FIZ1 (11724087_x_at) / RFU OASL (11726364_x_at) / Fold change /veh OASL (11726364_x_at) / RFU SOX15 (11748057_x_at) / Fold change /veh SOX15 (11748057_x_at) / RFU CD79A (11719716_a_at) / Fold change /veh CD79A (11719716_a_at) / RFU HIST1H1D (11736915_at) / Fold change /veh HIST1H1D (11736915_at) / RFU CASKIN2 (11723855_a_at) / Fold change /veh CASKIN2 (11723855_a_at) / RFU LOC730098 (11760151_x_at) / Fold change /veh LOC730098 (11760151_x_at) / RFU OR4N2 (11742367_at) / Fold change /veh OR4N2 (11742367_at) / RFU PRRT2 (11749266_a_at) / Fold change /veh PRRT2 (11749266_a_at) / RFU SNX32 (11753110_a_at) / Fold change /veh SNX32 (11753110_a_at) / RFU CDHR5 (11726645_a_at) / Fold change /veh CDHR5 (11726645_a_at) / RFU RCAN1 (11760418_a_at) / Fold change /veh RCAN1 (11760418_a_at) / RFU FAM167A (11723789_a_at) / Fold change /veh FAM167A (11723789_a_at) / RFU FAM26E (11764081_at) / Fold change /veh FAM26E (11764081_at) / RFU ISYNA1 (11749810_s_at) / Fold change /veh ISYNA1 (11749810_s_at) / RFU ACY1 (11761880_at) / Fold change /veh ACY1 (11761880_at) / RFU 11764098_at / Fold change /veh 11764098_at / RFU SAMD14 (11745864_x_at) / Fold change /veh SAMD14 (11745864_x_at) / RFU NPB (11741838_a_at) / Fold change /veh NPB (11741838_a_at) / RFU TMPRSS6 (11731388_a_at) / Fold change /veh TMPRSS6 (11731388_a_at) / RFU KRTAP10-2 (11738614_at) / Fold change /veh KRTAP10-2 (11738614_at) / RFU ARHGAP8 /// PRR5-ARHGAP8 (11727945_x_at) / Fold change /veh ARHGAP8 /// PRR5-ARHGAP8 (11727945_x_at) / RFU KRTAP5-7 /// NADSYN1 (11734609_at) / Fold change /veh KRTAP5-7 /// NADSYN1 (11734609_at) / RFU RASL12 (11751679_a_at) / Fold change /veh RASL12 (11751679_a_at) / RFU CDKN2B (11736163_a_at) / Fold change /veh CDKN2B (11736163_a_at) / RFU PRF1 (11729649_at) / Fold change /veh PRF1 (11729649_at) / RFU, ZNF638 /// ZNF638-IT1 / Fold change vs veh, ZNF638 /// ZNF638-IT1 / RFU, PANK3 / Fold change vs veh, PANK3 / RFU, SH3YL1 / Fold change vs veh, SH3YL1 / RFU, ZEB2 / Fold change vs veh, ZEB2 / RFU, NRIP1 / Fold change vs veh, NRIP1 / RFU, PTTG1IP / Fold change vs veh, PTTG1IP / RFU, CAPN2 / Fold change vs veh, CAPN2 / RFU, MED14 / Fold change vs veh, MED14 / RFU, SNORA58 / Fold change vs veh, SNORA58 / RFU, C1orf63 / Fold change vs veh, C1orf63 / RFU, LRRFIP1 / Fold change vs veh, LRRFIP1 / RFU, NDUFAF7 / Fold change vs veh, NDUFAF7 / RFU, SLC12A2 / Fold change vs veh, SLC12A2 / RFU, IBTK / Fold change vs veh, IBTK / RFU, ESF1 / Fold change vs veh, ESF1 / Fold change vs veh, TMEM50B / RFU, TAOK1 / Fold change vs veh, TAOK1 / RFU, ACBD3 / Fold change vs veh, ACBD3 / RFU, TMA16 / Fold change vs veh, TMA16 / RFU, RWDD3 / Fold change vs veh, RWDD3 / RFU, BCAT1 / Fold change vs veh, BCAT1 / RFU, EDEM3 / Fold change vs veh, EDEM3 / RFU, TMEM33 / Fold change vs veh, TMEM33 / RFU, WDR75 / Fold change vs veh, WDR75 / RFU, AHCTF1 / Fold change vs veh, AHCTF1 / RFU, TFRC / Fold change vs veh, TFRC / RFU, ZDHHC17 / Fold change vs veh, ZDHHC17 / RFU, NOM1 / Fold change vs veh, NOM1 / RFU, ARL8B / Fold change vs veh, ARL8B / RFU, ZBTB11 / Fold change vs veh, ZBTB11 / RFU, TAMM41 / Fold change vs veh, TAMM41 / RFU, KIAA1704 /// LOC100996395 / Fold change vs veh, KIAA1704 /// LOC100996395 / RFU, ING1 / Fold change vs veh, ING1 / RFU, TRMT61B / Fold change vs veh, TRMT61B / RFU, FUBP3 / Fold change vs veh, FUBP3 / RFU, TP53 / Fold change vs veh, TP53 / RFU, TNKS2 / Fold change vs veh, TNKS2 / RFU, ZFP14 / Fold change vs veh, ZFP14 / RFU, ACTR2 / Fold change vs veh, ACTR2 / RFU, PPP3R1 / Fold change vs veh, PPP3R1 / RFU, PIK3R1 / Fold change vs veh, PIK3R1 / RFU, HNRNPA1 / Fold change vs veh, HNRNPA1 / RFU, RNF170 / Fold change vs veh, RNF170 / RFU, ZNF28 / Fold change vs veh, ZNF28 / RFU, RNGTT / Fold change vs veh, RNGTT / RFU, OGT / Fold change vs veh, OGT / RFU, BRD1 / Fold change vs veh, BRD1 / RFU, MARS / Fold change vs veh, MARS / RFU, ZNF655 / Fold change vs veh, ZNF655 / RFU, FAHD1 / Fold change vs veh, FAHD1 / RFU, BDP1 / Fold change vs veh, BDP1 / RFU, LRRCC1 / Fold change vs veh, LRRCC1 / RFU, ARID1A / Fold change vs veh, ARID1A / RFU, ZNF146 / Fold change vs veh, ZNF146 / RFU, ZNF330 / Fold change vs veh, ZNF330 / RFU, GPN3 / Fold change vs veh, GPN3 / RFU, C9orf123 / Fold change vs veh, C9orf123 / RFU, N4BP2L2 / Fold change vs veh, N4BP2L2 / RFU, ARFIP1 / Fold change vs veh, ARFIP1 / RFU, FAM179B / Fold change vs veh, FAM179B / RFU, BCL10 / Fold change vs veh, BCL10 / RFU, UHRF1BP1L / Fold change vs veh, UHRF1BP1L / RFU, BET1 / Fold change vs veh, BET1 / RFU, CNOT2 / Fold change vs veh, CNOT2 / RFU, ZNF268 / Fold change vs veh, ZNF268 / Fold change vs veh, ZNF507 / RFU, DGCR2 / Fold change vs veh, DGCR2 / RFU, WDSUB1 / Fold change vs veh, WDSUB1 / Fold change vs veh, HSP90B1 /// MIR3652 / RFU, ADSS / Fold change vs veh, ADSS / RFU, GK / Fold change vs veh, GK / RFU, ZNF148 / Fold change vs veh, ZNF148 / RFU, TAF9 / Fold change vs veh, TAF9 / RFU, SLC1A5 / Fold change vs veh, SLC1A5 / RFU, SLMO2 / Fold change vs veh, SLMO2 / RFU, ABCC4 / Fold change vs veh, ABCC4 / RFU, LOC101060439 /// RAP1B / Fold change vs veh, LOC101060439 /// RAP1B / RFU, RFX7 / Fold change vs veh, RFX7 / RFU, GTPBP10 / Fold change vs veh, GTPBP10 / RFU, CNEP1R1 / Fold change vs veh, CNEP1R1 / RFU, BIVM-ERCC5 /// ERCC5 / Fold change vs veh, BIVM-ERCC5 /// ERCC5 / RFU, ILF3 / Fold change vs veh, ILF3 / RFU 11762660_at / Fold change /veh 11762660_at / RFU VCAN (11757783_s_at) / Fold change /veh VCAN (11757783_s_at) / RFU DDX43 (11728927_at) / Fold change /veh DDX43 (11728927_at) / RFU KRT8 (11758188_x_at) / Fold change /veh KRT8 (11758188_x_at) / RFU NKD1 (11759106_at) / Fold change /veh NKD1 (11759106_at) / RFU SRD5A1 (11742802_a_at) / Fold change /veh SRD5A1 (11742802_a_at) / RFU TPSAB1 /// TPSB2 (11721975_s_at) / Fold change /veh TPSAB1 /// TPSB2 (11721975_s_at) / RFU GSTM3 (11746129_a_at) / Fold change /veh GSTM3 (11746129_a_at) / RFU IL23R (11737362_x_at) / Fold change /veh IL23R (11737362_x_at) / RFU TMEM51 (11727254_a_at) / Fold change /veh TMEM51 (11727254_a_at) / RFU PIWIL2 (11732686_x_at) / Fold change /veh PIWIL2 (11732686_x_at) / RFU ORM1 (11744905_x_at) / Fold change /veh ORM1 (11744905_x_at) / RFU CCDC152 (11743942_at) / Fold change /veh CCDC152 (11743942_at) / RFU ECM1 (11717891_a_at) / Fold change /veh ECM1 (11717891_a_at) / RFU IL23R (11748794_a_at) / Fold change /veh IL23R (11748794_a_at) / RFU TNFAIP8L3 (11732012_x_at) / Fold change /veh TNFAIP8L3 (11732012_x_at) / RFU MBOAT4 (11741988_at) / Fold change /veh MBOAT4 (11741988_at) / RFU 11764193_at / Fold change /veh 11764193_at / RFU TMEM53 (11763286_at) / Fold change /veh TMEM53 (11763286_at) / RFU MAGEB2 (11727129_at) / Fold change /veh MAGEB2 (11727129_at) / RFU TMEM200A (11744735_a_at) / Fold change /veh TMEM200A (11744735_a_at) / RFU CCDC152 (11751479_a_at) / Fold change /veh CCDC152 (11751479_a_at) / RFU FAM211A (11726209_a_at) / Fold change /veh FAM211A (11726209_a_at) / RFU RGS16 (11746705_a_at) / Fold change /veh RGS16 (11746705_a_at) / RFU VCAN (11755009_s_at) / Fold change /veh VCAN (11755009_s_at) / RFU RHOB (11743442_s_at) / Fold change /veh RHOB (11743442_s_at) / RFU RGS16 (11720943_a_at) / Fold change /veh RGS16 (11720943_a_at) / RFU RGS16 (11720944_at) / Fold change /veh RGS16 (11720944_at) / RFU, VPS4B / Fold change vs veh, VPS4B / RFU, CREB1 / Fold change vs veh, CREB1 / RFU, DNAJC13 / Fold change vs veh, DNAJC13 / RFU, GNAQ / Fold change vs veh, GNAQ / RFU, CDK5R1 / Fold change vs veh, CDK5R1 / RFU, ZRANB3 / Fold change vs veh, ZRANB3 / RFU, CUL4A / Fold change vs veh, CUL4A / RFU, CCNY / Fold change vs veh, CCNY / RFU, UFL1 / Fold change vs veh, UFL1 / RFU, COG3 / Fold change vs veh, COG3 / RFU, DIAPH2 / Fold change vs veh, DIAPH2 / RFU, SKA2 / Fold change vs veh, SKA2 / RFU, AFF3 / Fold change vs veh, AFF3 / RFU, LMF1 / Fold change vs veh, LMF1 / RFU, IPO11 / Fold change vs veh, IPO11 / RFU, DFFB / Fold change vs veh, DFFB / RFU, FOXP1 / Fold change vs veh, FOXP1 / RFU, CARD8 / Fold change vs veh, CARD8 / RFU, STRN3 / Fold change vs veh, STRN3 / RFU, ADK / Fold change vs veh, ADK / RFU, RASSF2 / Fold change vs veh, RASSF2 / RFU, WIPF1 / Fold change vs veh, WIPF1 / RFU, LARP1B / Fold change vs veh, LARP1B / RFU, RASA1 / Fold change vs veh, RASA1 / RFU, RB1 / Fold change vs veh, RB1 / RFU, PPFIA1 / Fold change vs veh, PPFIA1 / RFU, MAT2A / Fold change vs veh, MAT2A / RFU, CCT5 / Fold change vs veh, CCT5 / RFU, WDR92 / Fold change vs veh, WDR92 / RFU, CUX1 / Fold change vs veh, CUX1 / RFU, TTC7A / Fold change vs veh, TTC7A / RFU, TMEM135 / Fold change vs veh, TMEM135 / RFU, DEPTOR / Fold change vs veh, DEPTOR / RFU, CPM / Fold change vs veh, CPM / RFU, DNAJB6 / Fold change vs veh, DNAJB6 / RFU, CACNA2D3 / Fold change vs veh, CACNA2D3 / RFU, DTX4 / Fold change vs veh, DTX4 / RFU, TFCP2 / Fold change vs veh, TFCP2 / RFU, GMCL1 /// GMCL1P1 / Fold change vs veh, GMCL1 /// GMCL1P1 / RFU, AEBP2 / Fold change vs veh, AEBP2 / RFU, SNHG1 /// SNORD22 /// SNORD25 /// SNORD26 /// SNORD27 /// SNORD28 /// SNORD29 /// SNORD31 / Fold change vs veh, SNHG1 /// SNORD22 /// SNORD25 /// SNORD26 /// SNORD27 /// SNORD28 /// SNORD29 /// SNORD31 / Fold change (Aza/veh), C12orf56 (ProbeSet 11735607_a_at) / Fold change (ACY-1035/veh), C12orf56 (ProbeSet 11735607_a_at) / Fold change (Aza/veh), FGFR1OP (ProbeSet 11751329_s_at) / Fold change (ACY-1035/veh), FGFR1OP (ProbeSet 11751329_s_at) / Fold change (Aza/veh), VPS36 (ProbeSet 11739960_a_at) / Fold change (ACY-1035/veh), VPS36 (ProbeSet 11739960_a_at) / RFU SYPL1 (11715823_x_at) / Fold change /veh SYPL1 (11715823_x_at) / RFU IGFBP7 (11715501_s_at) / Fold change /veh IGFBP7 (11715501_s_at) / RFU REEP3 (11722064_at) / Fold change /veh REEP3 (11722064_at) / RFU IGLL1 (11728026_x_at) / Fold change /veh IGLL1 (11728026_x_at): dose or concentration left out as unconfirmed",
  "conditions": "ProbeSet 11723944_a_at; LIST B",
  "data": [
    {"smiles": "Nc1ccc(-c2cccs2)cc1NC(=O)c1ccc2c(c1)cc(C1CC1)n2CCN1CCOCC1", "note": "[ACY-1035]", "values": [
      {"measurement": "Fold change vs veh, PTTG1IP", "result": 0.91}
    ]}
  ]
}
